Here are results for 2 compounds from patent publication US9566341B1, “Compounds including Cox inhibitor moiety and enhanced delivery of active drugs using same” (University of Kentucky Research Foundation, priority 2011, dated 2017).

Structures are written as SMILES. “Also recorded” adds a separate entry of the source. Like-named read-outs stand apart in the source and are kept apart here.

For series [1] the following is noted: in vivo, po, cited from earlier work.
For series [2] the following is noted: cited from earlier work.
Series [3] deals with hairless guinea pig micropores. Description: In vivo micropore visualization by gentian violet/India ink staining after MN treatment. The settings on record: codrug gel under occlusion, patch changed at 3.5 days. The source says: The patches were removed at predetermined time points and the site was cleaned with sterile gauze. Gentian violet/India ink was applied as the dyeing agent at the MN treated sites and allowed to dry before excess dye was removed with ethanol and gauze. Both the dyes stain the viable epidermis but not the intact SC. […] The donor was removed from the top of the skin at the end of the study and analyzed by direct injection onto HPLC after suitable dilution using ACN.
All animal experiments were approved by the University of Kentucky IACUC. A proof of concept in vivo experiment was carried out. 4% w/w gels were prepared with the hydrochloride salt form of the codrug. Gels were formulated by dissolving 4% codrug salt in PG: buffer at pH 5.0=10:90 and 3.0% hydroxyethylcellulose (HEC) polymer (required to have a gel formulation). Polymer was dissolved over a 30 minute period to obtain a homogenous gel. The solution was stirred until a viscous gel resulted and then left at room temperature for 1½ to 2 hours to remove bubbles and ensure complete polymerization. The gel was saturated with excess solid and therefore was cloudy. MN treated animals were first cleaned topically with isopropyl alcohol, and 50 MN array was applied twice mutually perpendicular to each other to give a total of 100 pores at each site. 0.3 mL gel doses were applied to the dorsal region of the HGP. After application of the gel the skin was occluded with the occlusive patch and biocclusive tape was applied to prevent evaporation of the formulation. The patch was changed with new formulation at 3.5 days such that more than 50% intact codrug was always present in formulation. […] The patches were removed to obtain data at successive 24 h time intervals.
The patches were removed at predetermined time points and the site was cleaned with sterile gauze. Gentian violet/India ink was applied as the dyeing agent at the MN treated sites and allowed to dry before excess dye was removed with ethanol and gauze. Both the dyes stain the viable epidermis but not the intact SC.

A short description of series [4]: Concentration of saturated donor solution. Type of series: physicochemical. The settings on record: base form; PG:ethanol:water=43:43:14. On the procedure:
Solubility studies are carried out by equilibrating large excesses of each drug with the solvent studied. The experiments will be done at skin surface temperature (32° C.). To hasten the attainment of equilibrium, each slurry will be continuously shaken or stirred. Samples will be taken, filtered with an appropriate filter for the solvent, measured with respect to volume, and either assayed directly by HPLC or evaporated to dryness and reconstituted for assay. Binding of the compounds to the filter will be checked to eliminate the possibility of drug adsorption on the filter and/or filter casing. All toxic solvents and other chemicals will be handled with caution, and fume hoods will be used when appropriate.
In vitro experiments. The goal of the first set of in vitro experiments was to estimate flux and skin concentration of the base form of the codrug.

A short description of series [5]: In vitro diffusion study across microneedle-treated full thickness Yucatan miniature pig skin. In kind it is in vitro ADME. Particulars: for bioconversion of the codrug in the skin: parent drugs in receiver/skin. On the procedure:
For all in vitro experiments female Yucatan minipig skin (6 months old) were used. Skin sections were obtained by removing the subcutaneous fatty tissue by scalpel dissection, and were stored at −20° C. A PermeGear flow-through (In-Line, Riegelsville, Pa., USA) diffusion cell system was used for the skin permeation studies.
The skin was pierced 20 times with an array containing 5 MN (i.e., to make a total of 100 individual and non-over lapping piercings) before mounting the skin in the diffusion cell for the treatment group. The insertion of MN into skin was carried out manually by applying gentle finger pressure followed by instantaneous removal. MN's were distributed evenly within the 0.95 cm^2 area of skin and could easily be visualized after each 5 MN insertion, as to prevent reapplication in the same area. Single MN array of 5 were used simply out of ease for the experimental procedure. If any damage to an MN section was observed the section was replaced. […] Untreated skin samples were simply placed in the diffusion cells. Diffusion cells were kept at 32° C. using a circulating water bath. Data were collected using skin from a single pig 3-4 cells for the MN treated formulations.
The physiological receiver solution was water adjusted to pH 7.4 containing 20% ethanol, and the flow rate was adjusted to 1.5 ml/h. Each cell was charged with 0.25 ml of the donor in the donor compartment of the chamber. The diffusion cells were covered with a stopper to prevent evaporation. Samples were collected from the receiver compartment in six-hour increments over 48 h or for the length of the treatment. All samples were stored at 4° C. until analyzed by HPLC.
The in vitro permeation experiments were carried out to determine the transdermal flux of the parent drugs and the codrug, permeation coefficients as well as the concentration of the drug molecules in the skin at the end of the study. For all in vitro experiments Yucatan miniature pig (YP) skin was used. Full thickness skin was obtained by removing the subcutaneous fatty tissue by scalpel dissection, and stored at −20° C. A PermeGear flow-through (In-Line, Riegelsville, Pa., USA) diffusion cell system was used for the skin permeation studies. […] The skin was pierced 20 times with a 5 MN array (making 100 individual and non-over lapping piercings) before mounting the skin in the diffusion cell. MN pores were distributed evenly within the 0.95 cm^2 area of skin. Untreated skin samples were mounted directly onto the diffusion cells. The setup was maintained at 32° C. using a circulating water bath. Data collected using a minimum of 3-4 cells per treatment group. The receiver solution was water alkalified to pH 7.4 containing 20% ethanol at 37° C. Gentamycin sulfate (50 mg/L) was added to the receiver for 7 day studies as an antibacterial agent. The receiver flow rate was adjusted to 1.5 ml/h to maintain skin conditions. Each cell was charged with 0.25 ml of the donor and the diffusion cells were covered with a stopper to prevent evaporation of formulation. Samples were collected at regular increments over 48 hours or for the length of the treatment. Drug was concentrated 10 fold by evaporating 1 ml of the collected sample under nitrogen and reconstituting in 100 μl of ACN for quantification. All samples were stored at 4° C. until analyzed by HPLC. The skin was removed at the end of the study and the treatment area was diced into small pieces using a scalpel after removing all excess drugs from top of the skin. Drug was extracted out by immersing the skin pieces in ACN overnight in a shaker water bath at 32° C. Samples were injected into the HPLC after appropriate dilution for quantitative analysis. The donor was also removed and quantified at the end of the study by direct injection onto HPLC after suitable dilution using ACN. All data was analyzed using Fick's first law of diffusion. […]

Series [6] in a line: Enzymatic stability in hairless guinea pig plasma. Type of series: in vitro ADME. Particulars: for enzymatic stability half-life in hairless guinea pig plasma: HGP plasma, 37° C., n=3. On the procedure:
Chemical and enzymatic stability was determined for the codrugs. For chemical stability studies, the codrug was put in prewarmed 0.3M acetate buffer pH 5.0 after solubilization in <5% ACN, if required, at 32° C. in an incubator. Samples were withdrawn at regular intervals and injected into the HPLC after appropriate dilutions. Enzymatic stability studies are important for estimation of conversion of codrugs in the plasma. For plasma stability studies prewarmed HGP plasma at 37° C. was spiked with codrug solution and samples were withdrawn at regular intervals. 100 μl of plasma sample was extracted with 1 ml of 1:1 ACN:ethyl acetate, vortexed, centrifuged at 10,000 rpm for 20 minutes on a bench top Eppendorf Mini Spin®. The supernatant was decanted into a glass tube and evaporated under nitrogen. Samples were reconstituted in 100 μl ACN and injected onto the HPLC. All stability data was analyzed using pseudo first order kinetics. All stability studies were carried out at least, in triplicate.

The nature of series [7]: Chemical stability in 0.3M acetate buffer pH 5.0 at 32° C. Type of series: physicochemical. The source says: The chemical stability of the prodrugs to hydrolysis and solvolysis at the appropriate temperatures will be determined by measuring concentrations over time in the buffers and solvents used in the solubility and diffusion studies. Chemical degradation rate constants will be important in distinguishing enzymatic degradation from non-enzymatic degradation. Codrug enzymatic metabolism rate constants can also be determined in skin homogenates, to ascertain if the values are useful in the QSPR multiple regression analysis. The kinetics of codrug enzymatic degradation in skin homogenates will be done using abdominal plastic surgery samples. Enzymatic reaction rates will be determined at several different codrug concentrations. The skin is homogenized (Polytron tissue homogenizer and ground glass homogenizer fitted with a glass pestle) in HEPES-buffered Hanks' balanced salt solution and the supernatant is obtained. The enzymatic hydrolysis rates are determined in the homogenate at 37° C. The codrug and its metabolites will be obtained by solid-phase extraction, or another appropriate extraction method. Naltrexone and any other metabolite formed will be assayed by HPLC and expressed as moles of metabolite per minute per milligram of protein. Protein concentrations in the supernatant will be measured by the Bradford method. Controls containing only codrug and HEPES-buffered Hanks' balanced salt solution at 37° C. will also be monitored to determine non-enzymatic hydrolysis.
Chemical and enzymatic stability was determined for the codrugs. For chemical stability studies, the codrug was put in prewarmed 0.3M acetate buffer pH 5.0 after solubilization in <5% ACN, if required, at 32° C. in an incubator. Samples were withdrawn at regular intervals and injected into the HPLC after appropriate dilutions. Enzymatic stability studies are important for estimation of conversion of codrugs in the plasma. […] All stability data was analyzed using pseudo first order kinetics. […]

Turning to `O=C1CC[C@@]2(O)[C@H]3Cc4ccc(O)c5c4[C@@]2(CCN3CC2CC2)[C@H]1O5` [NTX, Naltrexone], the oral bioavailability in series [1] is 5-40%; in series [1] (listed as Naltrexone), “five to forty”. Moreover, the log partition coefficient (log P) in series [2] is reported as 1.8.

For `O=C(Cc1ccccc1Nc1c(Cl)cccc1Cl)Oc1ccc2c3c1O[C@H]1C(=O)CC[C@@]4(O)[C@@H](C2)N(CC2CC2)CC[C@]314` [Compound 2A], in series [3], the “time the pores stay open after MN treatment” value was determined as 7 days. Moreover, the “concentration of saturated donor solution” value in series [4] was 4500 µg/mL. For the same compound, the “diclofenac skin concentration versus effective skin concentration goal of FIG. 5” value in series [5] is on record as “did not provide that level”. The “flux of NTX from the codrug relative to diclofenac flux” value in series [5] (FIG. 6) is on record as “twice as high”. Besides, the “bioconversion of the codrug in the skin” value is reported as “bioconverted completely in the skin” in series [5] (MN treated skin); “degraded in the skin to regenerate back the parent drugs” in series [5] (MN treated skin, listed as Compound 2U); “completely hydrolyzed in the skin; also recorded: degraded in the skin to regenerate back the parent drugs” in series [5] (MN treated skin, listed as codrug). Further, in series [5] (base form, saturated donor PG:ethanol:water=43:43:14, MN treated skin, 48 h, n=3), the “steady state flux of naltrexone from the codrug” value was 0.42±0.12 nmol/(cm^2/h). In series [5] (base form, saturated donor PG:ethanol:water=43:43:14, MN treated skin, 48 h, n=3, listed as Compound 2U), the “steady state flux of diclofenac from the codrug” value is listed as 0.19±0.06 nmol/(cm^2/h). For the same compound, the “Enzymatic stability” value in series [6] was 6.4 ± 0.84 min. Also, the “enzymatic stability half-life in hairless guinea pig plasma” value in series [6] was “around 6 minutes”; in series [6] (listed as Compound 2U), 6.4 ± 0.84 min; in series [6] (listed as codrug) it was 6.4 ± 0.84 min. In series [7], the “Chemical stability” value was 3.9 ± 0.56 days.

For orientation: log P means the decadic logarithm of the partition coefficient of the neutral form, usually between octanol and water.
